Measured values as given in publication PMC4589357, “The Role of Electrostatic Interactions in Binding of Histone H3K4me2/3 to the Sgf29 Tandem Tudor Domain” (PLoS ONE, 2015).
“And” between values parts separate entries of the source, which are not always exact repeats. Identical values can stand only once.

Key:
Sgf29 D266A = molecular target: T1, Sgf29 D266A (Homo sapiens, UniProt Q96ES7, D266A); assay: ITC binding of histone peptides to Sgf29 D266A
T1 construct: 6xHis (cleaved yes); made in house; host or cells: E. coli Rosetta BL21 DE3 PlysS
T1 sequence (Q96ES7 115-293 D266A): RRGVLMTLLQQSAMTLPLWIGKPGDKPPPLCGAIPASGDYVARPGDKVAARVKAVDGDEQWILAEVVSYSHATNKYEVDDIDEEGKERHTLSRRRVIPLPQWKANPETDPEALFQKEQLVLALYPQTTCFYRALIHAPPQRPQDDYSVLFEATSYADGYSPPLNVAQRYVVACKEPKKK

Sgf29 D266N = molecular target: T2, Sgf29 D266N (Homo sapiens, UniProt Q96ES7, D266N); assay: ITC binding of histone peptides to Sgf29 D266N
T2 construct: 6xHis (cleaved yes); made in house; host or cells: E. coli Rosetta BL21 DE3 PlysS
T2 sequence (Q96ES7 115-293 D266N): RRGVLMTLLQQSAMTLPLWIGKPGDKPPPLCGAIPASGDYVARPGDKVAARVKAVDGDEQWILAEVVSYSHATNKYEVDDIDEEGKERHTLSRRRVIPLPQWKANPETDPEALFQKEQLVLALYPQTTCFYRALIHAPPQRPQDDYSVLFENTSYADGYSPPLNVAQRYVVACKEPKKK

Sgf29 Y238F = molecular target: T3, Sgf29 Y238F (Homo sapiens, UniProt Q96ES7, Y238F); assay: ITC binding of histone peptides to Sgf29 Y238F
T3 construct: 6xHis (cleaved yes); made in house; host or cells: E. coli Rosetta BL21 DE3 PlysS
T3 sequence (Q96ES7 115-293 Y238F): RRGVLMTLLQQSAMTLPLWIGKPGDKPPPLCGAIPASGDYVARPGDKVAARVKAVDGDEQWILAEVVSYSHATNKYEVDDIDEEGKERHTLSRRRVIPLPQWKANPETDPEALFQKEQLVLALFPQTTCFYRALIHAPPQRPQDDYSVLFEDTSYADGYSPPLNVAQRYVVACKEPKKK

Sgf29 Y245F = molecular target: T4, Sgf29 Y245F (Homo sapiens, UniProt Q96ES7, Y245F); assay: ITC binding of histone peptides to Sgf29 Y245F
T4 construct: 6xHis (cleaved yes); made in house; host or cells: E. coli Rosetta BL21 DE3 PlysS
T4 sequence (Q96ES7 115-293 Y245F): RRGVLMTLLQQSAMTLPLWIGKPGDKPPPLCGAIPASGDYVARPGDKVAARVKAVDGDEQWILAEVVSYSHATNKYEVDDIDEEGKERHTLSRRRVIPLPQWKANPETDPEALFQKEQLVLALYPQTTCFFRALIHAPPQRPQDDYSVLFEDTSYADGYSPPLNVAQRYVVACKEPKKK

Sgf29 D266F = molecular target: T5, Sgf29 D266F (Homo sapiens, UniProt Q96ES7, D266F); assay: ITC binding of histone peptides to Sgf29 D266F
T5 construct: 6xHis (cleaved yes); made in house; host or cells: E. coli Rosetta BL21 DE3 PlysS
T5 sequence (Q96ES7 115-293 D266F): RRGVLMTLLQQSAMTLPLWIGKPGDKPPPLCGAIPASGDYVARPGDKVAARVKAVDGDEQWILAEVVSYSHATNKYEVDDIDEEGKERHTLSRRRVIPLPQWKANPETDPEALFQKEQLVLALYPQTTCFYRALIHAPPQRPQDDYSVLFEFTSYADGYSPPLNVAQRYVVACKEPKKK

[1] = molecular target: T6, tandem tudor domain of Sgf29, WT (Homo sapiens, UniProt Q96ES7); assay: ITC binding of histone peptides to WT Sgf29
T6 construct: 6xHis (cleaved yes); made in house; host or cells: E. coli Rosetta BL21 DE3 PlysS
T6 sequence (Q96ES7 115-293): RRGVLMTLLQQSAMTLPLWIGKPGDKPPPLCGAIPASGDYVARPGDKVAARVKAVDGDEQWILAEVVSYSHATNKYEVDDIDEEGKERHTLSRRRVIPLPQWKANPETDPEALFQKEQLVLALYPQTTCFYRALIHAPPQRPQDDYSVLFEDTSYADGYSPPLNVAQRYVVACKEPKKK

Sgf29 D266W = molecular target: T7, Sgf29 D266W (Homo sapiens, UniProt Q96ES7, D266W); assay: ITC binding of histone peptides to Sgf29 D266W
T7 construct: 6xHis (cleaved yes); made in house; host or cells: E. coli Rosetta BL21 DE3 PlysS
T7 sequence (Q96ES7 115-293 D266W): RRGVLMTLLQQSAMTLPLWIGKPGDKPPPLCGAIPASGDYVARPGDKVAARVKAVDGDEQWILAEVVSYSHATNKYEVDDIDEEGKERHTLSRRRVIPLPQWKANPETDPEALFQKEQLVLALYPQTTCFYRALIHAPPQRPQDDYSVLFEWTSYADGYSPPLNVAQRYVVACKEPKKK

Sgf29 D266Y = molecular target: T8, Sgf29 D266Y (Homo sapiens, UniProt Q96ES7, D266Y); assay: ITC binding of histone peptides to Sgf29 D266Y
T8 construct: 6xHis (cleaved yes); made in house; host or cells: E. coli Rosetta BL21 DE3 PlysS
T8 sequence (Q96ES7 115-293 D266Y): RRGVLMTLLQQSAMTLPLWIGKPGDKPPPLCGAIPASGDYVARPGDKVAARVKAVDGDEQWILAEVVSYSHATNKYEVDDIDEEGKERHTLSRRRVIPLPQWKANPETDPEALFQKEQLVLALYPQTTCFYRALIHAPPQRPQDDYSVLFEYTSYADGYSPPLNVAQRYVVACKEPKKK

Sgf29 D266E = molecular target: T9, Sgf29 D266E (Homo sapiens, UniProt Q96ES7, D266E); assay: ITC binding of histone peptides to Sgf29 D266E
T9 construct: 6xHis (cleaved yes); made in house; host or cells: E. coli Rosetta BL21 DE3 PlysS
T9 sequence (Q96ES7 115-293 D266E): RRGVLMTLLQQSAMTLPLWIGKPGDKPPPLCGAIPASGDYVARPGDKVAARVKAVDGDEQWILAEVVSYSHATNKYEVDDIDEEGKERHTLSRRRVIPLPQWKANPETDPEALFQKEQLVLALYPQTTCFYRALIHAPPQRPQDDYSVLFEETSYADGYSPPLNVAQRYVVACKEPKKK

[2] = D266A, TRIS pH 8.0, ± SD (2–4 repeats)
[3] = D266N, TRIS pH 8.0, ± SD (2–4 repeats)
[4] = Y238F, TRIS pH 8.0, ± SD (2–4 repeats)
[5] = Y245F, TRIS pH 8.0, ± SD (2–4 repeats)
[6] = D266F, TRIS pH 8.0, ± SD (2–4 repeats)
[7] = WT Sgf29, TRIS pH 8.0, ± SD (2–4 repeats)
[8] = D266Y, TRIS pH 8.0, ± SD (2–4 repeats)
[9] = D266E, TRIS pH 8.0, ± SD (2–4 repeats)

more unfavorable ΔH° (difference) (Sgf29 D266A; D266A relative to WT Sgf29): 1.7 kcal/mol
reduction in binding affinity (Sgf29 D266A; D266A relative to WT Sgf29): 8 fold
-TΔS° (Sgf29 D266A; [2]): 0.1 ± 0.1 kcal/mol
ΔG° (Sgf29 D266A; [2]): -6.3 ± 0.1 kcal/mol
ΔH° (Sgf29 D266A; [2]): -6.4 ± 0.1 kcal/mol
decrease in binding affinity (Sgf29 D266N; D266N relative to WT Sgf29): 8 fold
increase in entropy / -TΔS° (Sgf29 D266N; D266N relative to WT Sgf29): 0.7 kcal/mol
-TΔS° (Sgf29 D266N; [3]): -0.1 ± 0.1 kcal/mol
ΔH° (Sgf29 D266N; [3]): -6.2 ± 0.1 kcal/mol
thermodynamic profile (in words) (Sgf29 Y238F; Y238F variants with altered or similar CD spectra, compared to WT Sgf29): indistinguishable thermodynamic profiles
-TΔS° (Sgf29 Y238F; [4]): 0.7 ± 0.1 kcal/mol
ΔG° (Sgf29 Y238F; [4]): -7.4 ± 0.1 kcal/mol
ΔH° (Sgf29 Y238F; [4]): -8.1 ± 0.1 kcal/mol
reduced binding affinity (Sgf29 Y245F; Y245F relative to WT Sgf29): 4.5 fold
-TΔS° (Sgf29 Y245F; [5]): -0.7 ± 0.1 kcal/mol
ΔG° (Sgf29 Y245F; [5]): -6.6 ± 0.1 kcal/mol
ΔH° (Sgf29 Y245F; [5]): -5.9 ± 0.1 kcal/mol
decrease in ΔH° (Sgf29 D266F; D266F relative to WT Sgf29): 4.6 kcal/mol
more favorable -TΔS° (difference) (Sgf29 D266F; D266F relative to WT Sgf29): 3.1 kcal/mol
reduction in binding affinity (Sgf29 D266F; D266F relative to WT Sgf29): 14 fold
-TΔS° (Sgf29 D266F; [6]): -2.5 ± 0.1 kcal/mol
ΔG° (Sgf29 D266F; [6]): -5.9 ± 0.1 kcal/mol
ΔH° (Sgf29 D266F; [6]): -3.4 ± 0.2 kcal/mol
-TΔS° less favorable relative to Sgf29-H3K4me2, by ([1]; H3K4me3 vs H3K4me2, WT Sgf29): 0.7 kcal/mol
ΔH° more favorable relative to Sgf29-H3K4me2, by ([1]; H3K4me3 vs H3K4me2, WT Sgf29): 0.9 kcal/mol
ΔG° [1, 7]: -7.5 ± 0.1 kcal/mol
binding (in words) (Sgf29 D266W): abrogated
decrease in enthalpy (Sgf29 D266Y; D266Y relative to WT Sgf29): 3.3 kcal/mol
increase in entropy (Sgf29 D266Y; D266Y relative to WT Sgf29): about 2.1 kcal mol^-1
-TΔS° (Sgf29 D266Y; [8]): -1.4 ± 0.3 kcal/mol
ΔG° (Sgf29 D266Y; [8]): -6.2 ± 0.1 kcal/mol
ΔH° (Sgf29 D266Y; [8]): -4.8 ± 0.2 kcal/mol
-TΔS° (Sgf29 D266E; [9]): 1.6 ± 0.1 kcal/mol
ΔG° (Sgf29 D266E; [9]): -7.4 ± 0.1 kcal/mol
ΔH° (Sgf29 D266E; [9]): -9.0 ± 0.1 kcal/mol
SMILES: C[C@H](N)C(=O)N[C@@H](CCCNC(=N)N)C(=O)N[C@H](C(=O)N[C@@H](CCCC[N+](C)(C)C)C(=O)N[C@@H](CCC(N)=O)C(=O)N[C@H](C(=O)N[C@@H](C)C(=O)N[C@@H](CCCNC(=N)N)C(=O)N[C@@H](CCCCN)C(=O)N[C@@H](CO)C(N)=O)[C@@H](C)O)[C@@H](C)O [H3K4me3]
ΔG° (Sgf29 D266N; [3]): -6.3 kcal/mol and -6.3 ± 0.1 kcal/mol
-TΔS° [1, 7]: 0.6 kcal/mol and 0.6 ± 0.2 kcal/mol
ΔH° [1, 7]: -8.1 kcal/mol and -8.1 ± 0.2 kcal/mol
binding affinity (in words) (Sgf29 D266E; D266E relative to WT Sgf29): virtually indistinguishable binding affinities
